{"source": "paper PMC12102759", "about": "(Protein Science : A Publication of the Protein Society, 2025)", "test_system": "PABPC1 PABC", "type": "binding, human", "conditions": "DMS-BM library, bait PABPC1 PABC, row aa = residue at this position; for DMS-derived PSSM value, position S13 / DMS-derived PSSM value, position S15: S = wild type; for DMS-derived PSSM value (averaged), position K7: K = wild type", "key": {"[1]": {"conditions": "prey ATXN2, peptide TLNPNAKEFNPRSFSQ"}, "[2]": {"conditions": "prey ATXN2, peptide KSTLNPNAKEFNPRSF, N = wild type"}, "[3]": {"conditions": "prey ATXN2, TLNPNAKEFNPRSF(averaged) over the two overlapping peptides, N = wild type"}, "[4]": {"conditions": "prey ATXN2, peptide TLNPNAKEFNPRSFSQ, P = wild type"}, "[5]": {"conditions": "prey ATXN2, peptide TLNPNAKEFNPRSFSQ, R = wild type"}, "[6]": {"conditions": "prey ATXN2, TLNPNAKEFNPRSF(averaged) over the two overlapping peptides"}}, "note": "Like-named read-outs stand apart in the source and are kept apart here."}
{"substance": "KSTLNPNAKEFNPRSF F11S (KSTLNPNAKESNPRSF)", "values": [{"measurement": "DMS-derived PSSM value, position F11", "setting": "prey ATXN2, peptide KSTLNPNAKEFNPRSF, F = wild type", "value": 0}]}
{"substance": "TLNPNAKEFNPRSFSQ S13H (TLNPNAKEFNPRHFSQ)", "values": [{"measurement": "DMS-derived PSSM value, position S13", "setting": "[1]", "value": 0.01388}]}
{"substance": "KSTLNPNAKEFNPRSF N12V (KSTLNPNAKEFVPRSF)", "values": [{"measurement": "DMS-derived PSSM value, position N12", "setting": "[2]", "value": 0.2093}]}
{"substance": "TLNPNAKEFNPRSF(averaged) N3S (TLSPNAKEFNPRSF)", "values": [{"measurement": "DMS-derived PSSM value (averaged), position N3", "setting": "[3]", "value": 0.2635}]}
{"substance": "TLNPNAKEFNPRSFSQ P4M (TLNMNAKEFNPRSFSQ)", "values": [{"measurement": "DMS-derived PSSM value, position P4", "setting": "[4]", "value": 0.001164}]}
{"substance": "KSTLNPNAKEFNPRSF N5V (KSTLVPNAKEFNPRSF)", "values": [{"measurement": "DMS-derived PSSM value, position N5", "setting": "[2]", "value": 0}]}
{"substance": "TLNPNAKEFNPRSFSQ R12I (TLNPNAKEFNPISFSQ)", "values": [{"measurement": "DMS-derived PSSM value, position R12", "setting": "[5]", "value": 0.04014}]}
{"substance": "TLNPNAKEFNPRSF(averaged) N3E (TLEPNAKEFNPRSF)", "values": [{"measurement": "DMS-derived PSSM value (averaged), position N3", "setting": "[3]", "value": 0}]}
{"substance": "TLNPNAKEFNPRSFSQ S13Q (TLNPNAKEFNPRQFSQ)", "values": [{"measurement": "DMS-derived PSSM value, position S13", "setting": "[1]", "value": 0.0185}]}
{"substance": "TLNPNAKEFNPRSF(averaged) N5S (TLNPSAKEFNPRSF)", "values": [{"measurement": "DMS-derived PSSM value (averaged), position N5", "setting": "[3]", "value": 0.02321}]}
{"substance": "TLNPNAKEFNPRSF(averaged) K7A (TLNPNAAEFNPRSF)", "values": [{"measurement": "DMS-derived PSSM value (averaged), position K7", "setting": "[6]", "value": 0.1204}]}
{"substance": "KSTLNPNAKEFNPRSF N7R (KSTLNPRAKEFNPRSF)", "values": [{"measurement": "DMS-derived PSSM value, position N7", "setting": "[2]", "value": 0.005056}]}
{"substance": "TLNPNAKEFNPRSF(averaged) P4E (TLNENAKEFNPRSF)", "values": [{"measurement": "DMS-derived PSSM value (averaged), position P4", "setting": "prey ATXN2, TLNPNAKEFNPRSF(averaged) over the two overlapping peptides, P = wild type", "value": 0.0008442}]}
{"substance": "TLNPNAKEFNPRSF(averaged) T1Q (QLNPNAKEFNPRSF)", "values": [{"measurement": "DMS-derived PSSM value (averaged), position T1", "setting": "prey ATXN2, TLNPNAKEFNPRSF(averaged) over the two overlapping peptides, T = wild type", "value": 0.003845}]}
{"substance": "TLNPNAKEFNPRSF(averaged) K7M (TLNPNAMEFNPRSF)", "values": [{"measurement": "DMS-derived PSSM value (averaged), position K7", "setting": "[6]", "value": 0.05548}]}
{"substance": "KSTLNPNAKEFNPRSF E10W (KSTLNPNAKWFNPRSF)", "values": [{"measurement": "DMS-derived PSSM value, position E10", "setting": "prey ATXN2, peptide KSTLNPNAKEFNPRSF, E = wild type", "value": 0}]}
{"substance": "KSTLNPNAKEFNPRSF A8D (KSTLNPNDKEFNPRSF)", "values": [{"measurement": "DMS-derived PSSM value, position A8", "setting": "prey ATXN2, peptide KSTLNPNAKEFNPRSF, A = wild type", "value": 0}]}
{"substance": "TLNPNAKEFNPRSFSQ R12K (TLNPNAKEFNPKSFSQ)", "values": [{"measurement": "DMS-derived PSSM value, position R12", "setting": "[5]", "value": 0.01776}]}
{"substance": "TLNPNAKEFNPRSF(averaged) R12N (TLNPNAKEFNPNSF)", "values": [{"measurement": "DMS-derived PSSM value (averaged), position R12", "setting": "prey ATXN2, TLNPNAKEFNPRSF(averaged) over the two overlapping peptides, R = wild type", "value": 0.02727}]}
{"substance": "KSTLNPNAKEFNPRSF S15K (KSTLNPNAKEFNPRKF)", "values": [{"measurement": "DMS-derived PSSM value, position S15", "setting": "prey ATXN2, peptide KSTLNPNAKEFNPRSF", "value": 0}]}
{"substance": "TLNPNAKEFNPRSFSQ P4V (TLNVNAKEFNPRSFSQ)", "values": [{"measurement": "DMS-derived PSSM value, position P4", "setting": "[4]", "value": 0.4281}]}
{"substance": "KSTLNPNAKEFNPRSF N12E (KSTLNPNAKEFEPRSF)", "values": [{"measurement": "DMS-derived PSSM value, position N12", "setting": "[2]", "value": 0.06073}]}
{"substance": "TLNPNAKEFNPRSFSQ S15Y (TLNPNAKEFNPRSFYQ)", "values": [{"measurement": "DMS-derived PSSM value, position S15", "setting": "[1]", "value": 0.004758}]}
{"substance": "TLNPNAKEFNPRSF(averaged) N10F (TLNPNAKEFFPRSF)", "values": [{"measurement": "DMS-derived PSSM value (averaged), position N10", "setting": "[3]", "value": 0.02798}]}
{"substance": "TLNPNAKEFNPRSF(averaged) K7Q (TLNPNAQEFNPRSF)", "values": [{"measurement": "DMS-derived PSSM value (averaged), position K7", "setting": "[6]", "value": 0.01764}]}
{"substance": "TLNPNAKEFNPRSFSQ P4Y (TLNYNAKEFNPRSFSQ)", "values": [{"measurement": "DMS-derived PSSM value, position P4", "setting": "[4]", "value": 0}]}
{"substance": "TLNPNAKEFNPRSFSQ F14T (TLNPNAKEFNPRSTSQ)", "values": [{"measurement": "DMS-derived PSSM value, position F14", "setting": "prey ATXN2, peptide TLNPNAKEFNPRSFSQ, F = wild type", "value": 0.006633}]}
{"substance": "TLNPNAKEFNPRSFSQ P4L (TLNLNAKEFNPRSFSQ)", "values": [{"measurement": "DMS-derived PSSM value, position P4", "setting": "[4]", "value": 0.05708}]}
{"substance": "TLNPNAKEFNPRSFSQ T1Y (YLNPNAKEFNPRSFSQ)", "values": [{"measurement": "DMS-derived PSSM value, position T1", "setting": "prey ATXN2, peptide TLNPNAKEFNPRSFSQ, T = wild type", "value": 0.3306}]}
{"substance": "TLNPNAKEFNPRSF(averaged) L2A (TANPNAKEFNPRSF)", "values": [{"measurement": "DMS-derived PSSM value (averaged), position L2", "setting": "prey ATXN2, TLNPNAKEFNPRSF(averaged) over the two overlapping peptides, L = wild type", "value": 0}]}
{"substance": "KSTLNPNAKEFNPRSF R14P (KSTLNPNAKEFNPPSF)", "values": [{"measurement": "DMS-derived PSSM value, position R14", "setting": "prey ATXN2, peptide KSTLNPNAKEFNPRSF, R = wild type", "value": 0.00803}]}
{"substance": "TLNPNAKEFNPRSFSQ S15D (TLNPNAKEFNPRSFDQ)", "values": [{"measurement": "DMS-derived PSSM value, position S15", "setting": "[1]", "value": 0.0138}]}
